Assay results from ChEMBL document CHEMBL5120802, “Kumemicinones A-G, Cytotoxic Angucyclinones from a Deep Sea-Derived Actinomycete of the Genus Actinomadura” (J Nat Prod, 2022).

experiment: Cytotoxicity against mouse P388 cells assessed as reduction in cell viability measured after 72 hrs by XTT assay; format: functional, cell-based; details: P388, 72 h

Going from `CC1=C[C@@H]2O[C@]34CC[C@](O)(C1)[C@H]2[C@]3(O)[C@@H](O)c1cccc(O)c1C4=O` to `CC1=C[C@@H](O)[C@H]2[C@](O)(CC[C@]34O[C@]23[C@@H](O)c2cccc(O)c2C4=O)C1`, the IC50 falls from 28.6 µM to 1.7 µM (17-fold). The second is the more potent here.

First: C[C@@]1(O)C=C[C@H]2[C@](O)(CC[C@]34O[C@]23[C@@H](O)c2cccc(O)c2C4=O)C1
Second: C[C@]1(O)C=C[C@H]2[C@](O)(CC[C@]34O[C@]23[C@@H](O)c2cccc(O)c2C4=O)C1
The IC50 of the first is 4.2-fold higher: 7.6 µM for the first, 1.8 µM for the second.

Compared with `CC1=C[C@@H](O)[C@@H]2C(=O)[C@@]3(CC[C@]2(O)C1)C(=O)c1c(O)cccc1[C@H]3O`, `CC1=CC(=O)C2=C3[C@@H](O)c4cccc(O)c4C(=O)[C@]3(O)CC[C@]2(O)C1` is 4.4-fold lower in IC50: 53.3 µM for the first, 12 µM for the second.

`CC1=C[C@@H](O)[C@H]2[C@](O)(CC[C@]3(Oc4cccc5c4C(=O)[C@]46CC[C@]7(O)CC(C)=C[C@@H](O)[C@@H]7[C@]4(O6)[C@H]5O)C(=O)c4c(O)cccc4[C@H](O)[C@@]23O)C1` and `CC1=C[C@@H](O)[C@H]2[C@](O)(CC[C@]34O[C@]23[C@@H](O)c2cccc(O[C@]35CC[C@]6(O)C[C@@](C)(O)C=C[C@@H]6[C@]3(O)[C@@H](O)c3cccc(O)c3C5=O)c2C4=O)C1` are within 1.5-fold of each other in IC50: 9.7 µM for the first, 10.7 µM for the second.

`Cc1ccc2c(c1)CC[C@]1(S[C@]34CCc5cc(C)ccc5[C@]3(O)[C@@H](O)c3cccc(O)c3C4=O)C(=O)c3c(O)cccc3[C@H](O)[C@@]21O` gave an IC50 of 6.1 µM.
